Several values for one entry are separate records, joined by “and”; a condition that tells them apart may be missing. Equal entries are not always repeated.
Experiments:
MCT1 = target: T1, MCT1 (Homo sapiens, UniProt P53985); assay: [14C]L-lactate uptake by HIBCPP cells; type: cell-based; details: IB pH 6.0
T1 sequence (P53985 1-500): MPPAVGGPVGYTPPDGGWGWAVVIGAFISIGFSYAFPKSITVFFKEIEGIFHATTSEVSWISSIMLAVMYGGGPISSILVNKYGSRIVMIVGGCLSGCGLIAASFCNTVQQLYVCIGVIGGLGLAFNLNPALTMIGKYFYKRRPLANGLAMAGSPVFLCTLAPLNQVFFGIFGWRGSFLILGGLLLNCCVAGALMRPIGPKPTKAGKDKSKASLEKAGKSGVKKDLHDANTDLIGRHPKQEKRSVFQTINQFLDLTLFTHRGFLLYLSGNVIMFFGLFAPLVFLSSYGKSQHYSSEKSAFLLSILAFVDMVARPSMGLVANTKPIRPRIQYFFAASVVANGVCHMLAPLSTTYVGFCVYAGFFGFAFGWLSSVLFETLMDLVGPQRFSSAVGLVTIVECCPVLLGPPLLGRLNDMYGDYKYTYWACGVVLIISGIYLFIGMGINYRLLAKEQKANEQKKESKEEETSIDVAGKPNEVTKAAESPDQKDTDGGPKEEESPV

Transcellular transport = details: human
HIBCPP cell layer = assay: Transcellular transport; details: for Papp,correct in the BL-to-AP direction relative to the AP-to-BL direction: BL-to-AP greater than AP-to-BL; for Papp,correct AP-to-BL / Papp,correct BL-to-AP: corrected by lucifer yellow
SLC35F2 = target: T2, SLC35F2 (Homo sapiens, UniProt Q8IXU6); assay: YM155 uptake by HIBCPP cells; type: cell-based; details: 30 s
T2 sequence (Q8IXU6 1-374): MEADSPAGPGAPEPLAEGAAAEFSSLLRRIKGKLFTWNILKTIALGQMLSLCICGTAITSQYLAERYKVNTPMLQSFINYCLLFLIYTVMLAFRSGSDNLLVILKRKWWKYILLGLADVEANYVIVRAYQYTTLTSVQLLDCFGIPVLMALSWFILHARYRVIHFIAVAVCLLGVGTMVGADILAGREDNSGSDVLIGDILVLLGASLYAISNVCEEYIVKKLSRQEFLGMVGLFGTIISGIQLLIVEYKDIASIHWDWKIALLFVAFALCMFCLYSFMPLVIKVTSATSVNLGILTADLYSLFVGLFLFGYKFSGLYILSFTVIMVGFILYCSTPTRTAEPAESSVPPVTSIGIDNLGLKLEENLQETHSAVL

LAT1 = LAT1 (Homo sapiens, UniProt Q01650); assay: Gabapentin uptake by HIBCPP cells; type: cell-based
GLUT1 = target: T3, GLUT1 (Homo sapiens, UniProt P11166); assay: [3H]3-O-methylglucose uptake by HIBCPP cells; type: cell-based; details: 10 s, glucose-free IB
T3 sequence (P11166 1-492): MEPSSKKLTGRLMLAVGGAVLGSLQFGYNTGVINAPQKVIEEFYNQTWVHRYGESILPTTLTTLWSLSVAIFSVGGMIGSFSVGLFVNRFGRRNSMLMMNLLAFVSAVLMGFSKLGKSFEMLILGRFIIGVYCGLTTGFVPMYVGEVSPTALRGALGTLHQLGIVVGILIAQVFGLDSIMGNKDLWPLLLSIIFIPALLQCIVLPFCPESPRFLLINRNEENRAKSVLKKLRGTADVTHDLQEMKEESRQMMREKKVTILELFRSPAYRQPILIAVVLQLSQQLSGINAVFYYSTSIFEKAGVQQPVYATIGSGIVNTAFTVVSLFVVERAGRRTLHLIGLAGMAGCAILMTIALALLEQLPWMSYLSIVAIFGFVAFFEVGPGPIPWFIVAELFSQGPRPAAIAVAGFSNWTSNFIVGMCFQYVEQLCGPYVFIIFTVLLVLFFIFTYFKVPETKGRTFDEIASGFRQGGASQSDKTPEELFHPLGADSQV

GLAST = GLAST (Homo sapiens, UniProt P43003); assay: [3H]L-glutamate uptake by HIBCPP cells; type: cell-based; details: 1 min
CAT1 = CAT1 (Homo sapiens, UniProt P30825); assay: [3H]L-arginine uptake by HIBCPP cells; type: cell-based; details: for Relative uptake (% of control): 1 min
PMAT = assay: MPP+ uptake by HIBCPP cells; type: cell-based, human; details: 5 min
OATP1B3 = assay: Telmisartan uptake by HIBCPP cells; type: cell-based, human; details: telmisartan uptake at 4°C, 30 s
[1] = Papp,correct (AP-to-BL)/Papp,correct (BL-to-AP)

Chain of GLAST (P43003 whole entry): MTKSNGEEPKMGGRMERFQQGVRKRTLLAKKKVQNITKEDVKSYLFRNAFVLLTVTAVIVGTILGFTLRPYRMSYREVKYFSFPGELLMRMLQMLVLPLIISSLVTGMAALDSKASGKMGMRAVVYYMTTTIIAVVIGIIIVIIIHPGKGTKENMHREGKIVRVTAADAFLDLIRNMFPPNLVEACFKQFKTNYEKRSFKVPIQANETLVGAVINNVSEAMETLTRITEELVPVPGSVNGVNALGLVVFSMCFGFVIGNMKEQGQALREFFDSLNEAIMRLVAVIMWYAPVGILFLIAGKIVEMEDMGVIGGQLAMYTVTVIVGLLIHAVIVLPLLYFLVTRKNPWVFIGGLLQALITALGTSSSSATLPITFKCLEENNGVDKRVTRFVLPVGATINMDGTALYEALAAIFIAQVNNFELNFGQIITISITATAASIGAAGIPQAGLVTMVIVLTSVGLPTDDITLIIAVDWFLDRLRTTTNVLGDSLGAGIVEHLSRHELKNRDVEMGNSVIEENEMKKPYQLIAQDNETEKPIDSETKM
Chain of LAT1 (Q01650 whole entry): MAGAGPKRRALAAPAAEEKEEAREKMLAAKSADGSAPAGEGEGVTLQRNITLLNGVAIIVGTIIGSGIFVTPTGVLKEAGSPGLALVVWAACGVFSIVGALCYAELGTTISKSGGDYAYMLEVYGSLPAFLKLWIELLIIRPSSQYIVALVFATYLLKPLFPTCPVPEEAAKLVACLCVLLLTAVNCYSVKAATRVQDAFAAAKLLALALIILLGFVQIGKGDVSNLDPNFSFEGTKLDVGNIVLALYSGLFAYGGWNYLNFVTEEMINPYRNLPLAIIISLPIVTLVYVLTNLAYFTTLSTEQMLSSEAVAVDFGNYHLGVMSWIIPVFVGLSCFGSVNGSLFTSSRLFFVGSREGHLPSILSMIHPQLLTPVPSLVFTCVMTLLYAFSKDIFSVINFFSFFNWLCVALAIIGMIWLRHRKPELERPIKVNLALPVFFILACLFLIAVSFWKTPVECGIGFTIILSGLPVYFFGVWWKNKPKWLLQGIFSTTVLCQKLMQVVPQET
Chain of LAT1 (P08195 102-630 partner): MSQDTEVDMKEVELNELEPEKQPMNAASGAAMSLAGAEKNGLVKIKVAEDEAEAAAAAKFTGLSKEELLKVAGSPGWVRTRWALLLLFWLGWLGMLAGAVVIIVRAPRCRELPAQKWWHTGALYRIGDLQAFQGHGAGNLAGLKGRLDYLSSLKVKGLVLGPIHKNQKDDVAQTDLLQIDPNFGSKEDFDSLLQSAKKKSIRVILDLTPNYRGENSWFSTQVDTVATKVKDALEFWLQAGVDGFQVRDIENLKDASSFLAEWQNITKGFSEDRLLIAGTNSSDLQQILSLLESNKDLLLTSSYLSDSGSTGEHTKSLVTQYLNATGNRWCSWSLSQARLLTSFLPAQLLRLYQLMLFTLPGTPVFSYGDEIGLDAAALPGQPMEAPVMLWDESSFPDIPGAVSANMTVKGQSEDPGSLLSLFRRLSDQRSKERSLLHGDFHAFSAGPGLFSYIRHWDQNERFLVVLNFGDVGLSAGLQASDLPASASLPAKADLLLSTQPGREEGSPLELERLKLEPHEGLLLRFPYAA
Chain of CAT1 (P30825 whole entry): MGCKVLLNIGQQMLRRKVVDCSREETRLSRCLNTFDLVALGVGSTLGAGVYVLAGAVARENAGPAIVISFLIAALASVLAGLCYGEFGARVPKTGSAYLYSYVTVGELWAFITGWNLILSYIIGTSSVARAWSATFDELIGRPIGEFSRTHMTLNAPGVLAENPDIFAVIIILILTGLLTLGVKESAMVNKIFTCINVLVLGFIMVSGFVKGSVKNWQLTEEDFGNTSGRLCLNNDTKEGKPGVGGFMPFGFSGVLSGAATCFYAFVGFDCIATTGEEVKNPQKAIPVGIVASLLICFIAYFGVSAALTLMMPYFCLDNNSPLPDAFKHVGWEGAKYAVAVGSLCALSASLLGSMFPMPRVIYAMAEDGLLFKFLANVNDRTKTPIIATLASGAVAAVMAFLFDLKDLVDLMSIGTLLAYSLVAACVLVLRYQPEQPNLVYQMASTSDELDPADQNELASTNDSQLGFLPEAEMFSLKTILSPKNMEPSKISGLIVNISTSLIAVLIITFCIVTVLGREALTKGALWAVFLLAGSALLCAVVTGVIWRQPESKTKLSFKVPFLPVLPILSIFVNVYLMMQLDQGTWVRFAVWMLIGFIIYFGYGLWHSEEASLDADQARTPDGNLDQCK

## Cc1[nH]nc(C(F)(F)F)c1Cc1sc2c(c1C(=O)N1C[C@](C)(O)CO1)c(=O)n(C)c(=O)n2C(C)C [AZD3965]
MCT1; [14C]L-lactate uptake + 20 nM AZD3965, 30 s
  Relative uptake (% of control): 28.0 % of control and 28.0 ± 1.6 % of control

## O=C1CN(/N=C/c2ccc(-c3ccc([N+](=O)[O-])cc3)o2)C(O)=N1 [Dantrolene, Dantrolene sodium]
Transcellular transport
  Papp A→B: 5.98 ± 0.77 ×10⁻⁶ cm/s
  Papp A→B at 2 h: 9.28 ± 0.77 ×10⁻⁶ cm/s
  Papp B→A: 11.5 ± 0.9 ×10⁻⁶ cm/s
  Papp B→A at 2 h: 14.8 ± 0.9 ×10⁻⁶ cm/s
HIBCPP cell layer
  Papp,correct in the BL-to-AP direction relative to the AP-to-BL direction: 2 times
HIBCPP cell layer; [1]
  Efflux ratio: 0.52

## NC(N)=Nc1nc(CSCCC(N)=NS(N)(=O)=O)cs1 [Famotidine]
SLC35F2; YM155 uptake + 1 mM famotidine
  Relative uptake (% of control): 40.0 ± 8.5 % of control

## NCC1(CC(=O)O)CCCCC1 [Gabapentin]
Transcellular transport
  Papp A→B: 10.8 ± 0.6 ×10⁻⁶ cm/s
  Papp A→B at 2 h: 14.1 ± 0.6 ×10⁻⁶ cm/s
  Papp B→A: 0.213 ± 0.078 ×10⁻⁶ cm/s
  Papp B→A at 2 h: 3 ± 0.08 ×10⁻⁶ cm/s
HIBCPP cell layer; [1]
  Efflux ratio: 50.7
LAT1; gabapentin uptake at 4°C, 1 min
  Relative uptake (% of control): 9.24 ± 0.54 % of control
LAT1; gabapentin uptake, low temperature (4°C)
  Decrease of uptake at low temperatures: > 90%
LAT1; gabapentin, at 4 °C or in the presence of respective inhibitor
  Reduction of uptake into HIBCPP cells: more than 80%

## OC[C@H]1OC(O)[C@H](O)[C@@H](O)[C@@H]1O (some centres unmarked) [Glucose]
GLUT1; [3H]3-O-methylglucose uptake + 5.6 mM glucose
  Relative uptake (% of control): 54.7 ± 1.4 % of control

## Nc1cc(COc2c(Cl)cc(C[C@H](N)C(=O)O)cc2Cl)c2oc(-c3ccccc3)nc2c1 [JPH203]
LAT1; gabapentin uptake + 10 μM JPH203, 1 min
  Relative uptake (% of control): 13.1 ± 0.2 % of control

## N[C@@H](CC(=O)O)C(=O)O [L-Aspartic acid]
GLAST; [3H]L-glutamate uptake + 1 mM L-aspartic acid
  Relative uptake (% of control): 65.3 ± 4.9 % of control
GLAST; [3H]L-glutamate uptake + 1 mM L-aspartic acid, listed as L-aspartic acid
  Relative uptake (% of control): 65.3 % of control

## NCCC[C@H](N)C(=O)O [L-Ornithine]
CAT1; [3H]L-arginine uptake + 1 mM L-ornithine
  Relative uptake (% of control): 18.7 ± 0.2 % of control

## C[n+]1ccc(-c2ccccc2)cc1 [MPP^+, 1-methyl-4-phenylpyridinium]
HIBCPP cell layer; [1]
  Efflux ratio: 1.03
PMAT; MPP+ uptake at 4°C
  Relative uptake (% of control): 22.2 ± 5.5 % of control

## NCCc1c[nH]c2ccc(O)cc12 [Serotonin]
PMAT; MPP+ uptake + 1 mM serotonin
  Relative uptake (% of control): 48.6 ± 5.1 % of control

## CCCc1nc2c(C)cc(-c3nc4ccccc4n3C)cc2n1Cc1ccc(-c2ccccc2C(=O)O)cc1 [Telmisartan]
Transcellular transport
  Papp A→B at 2 h: 0.9 ± 0.23 ×10⁻⁶ cm/s
  Papp B→A: 10.5 ± 3.3 ×10⁻⁶ cm/s
  Papp B→A at 2 h: 13.8 ± 3.3 ×10⁻⁶ cm/s
Transcellular transport; Efflux ratio, Papp,correct (AP-to-BL)/Papp,correct (BL-to-AP)
  Efflux ratio: < 1
OATP1B3
  Relative uptake (% of control): 22.9 ± 1.4 % of control

## COCCn1c2c([n+](Cc3cnccn3)c1C)C(=O)c1ccccc1C2=O [YM155]
Transcellular transport
  Papp A→B: 3.36 ± 0.34 ×10⁻⁶ cm/s
  Papp A→B at 2 h: 6.66 ± 0.34 ×10⁻⁶ cm/s
  Papp B→A: 1.32 ± 0.37 ×10⁻⁶ cm/s
  Papp B→A at 2 h: 4.59 ± 0.37 ×10⁻⁶ cm/s
SLC35F2; YM155 uptake at 4°C
  Relative uptake (% of control): 27.8 ± 3.0 % of control

## [3H]CO[C@H]1[C@H](O)[C@@H](CO)OC(O)[C@@H]1O (stereo partly drawn) [[^3H]3-O-Methylglucose, methyl-D-glucose 3-O-[methyl-^3H]]
HIBCPP cell layer; [1]
  Efflux ratio: 1.05
GLUT1; [3H]3-O-methylglucose uptake at 4°C
  Relative uptake (% of control): 14.0 ± 1.3 % of control

## NC(N)=NCCC[C@H](N)C(=O)O [[^3H]L-Arginine, arginine L-[2,3,4-^3H]]
HIBCPP cell layer; [1]
  Efflux ratio: exceed 1
CAT1; [3H]L-arginine uptake at 4°C
  Relative uptake (% of control): 6.80 ± 0.69 % of control
CAT1; [3H]L-arginine uptake, low temperature (4°C)
  Decrease of uptake at low temperatures: > 90%
CAT1; [3H]L-arginine, at 4 °C or in the presence of respective inhibitor
  Reduction of uptake into HIBCPP cells: more than 80%

## [14CH3][14CH](O)[14C](=O)[O-].[Na+] [[^14C]L-Lactate, lactic acid L-[^14C(U)] Na salt]
HIBCPP cell layer; AP side pH 6.0 BL side pH 7.4
  Papp AP-to-BL: 30.6 ± 2.0 × 10^–6 cm/sec
  Papp BL-to-AP: 4.71 ± 0.14 × 10^–6 cm/sec
  Papp,correct AP-to-BL: 27.3 ± 2.0 × 10^–6 cm/sec
  Papp,correct BL-to-AP: 1.44 ± 0.14 × 10^–6 cm/sec
HIBCPP cell layer; AP side pH 6.0 BL side pH 7.4, Papp,correct (AP-to-BL)/(BL-to-AP)
  Efflux ratio: 19.0
HIBCPP cell layer; AP side pH 7.4 BL side pH 6.0
  Papp AP-to-BL: 3.05 ± 0.09 × 10^–6 cm/sec
  Papp BL-to-AP: 11.5 ± 0.1 × 10^–6 cm/sec
  Papp,correct BL-to-AP: 8.20 ± 0.11 × 10^–6 cm/sec
HIBCPP cell layer; AP side pH 7.4 BL side pH 7.4
  Papp AP-to-BL: 9.56 ± 0.20 × 10^–6 cm/sec
  Papp BL-to-AP: 8.84 ± 0.36 × 10^–6 cm/sec
  Papp,correct AP-to-BL: 6.26 ± 0.20 × 10^–6 cm/sec
  Papp,correct BL-to-AP: 5.57 ± 0.36 × 10^–6 cm/sec
HIBCPP cell layer; AP side pH 7.4 BL side pH 7.4, Papp,correct (AP-to-BL)/(BL-to-AP)
  Efflux ratio: 1.12
MCT1; [14C]L-lactate uptake at 4°C, 30 s
  Relative uptake (% of control): 17.7 % of control and 17.7 ± 0.4 % of control

## glutamic acid L-[2,3,4-^3H] [[^3H]L-Glutamate]
HIBCPP cell layer
  Papp,correct in the BL-to-AP direction relative to the AP-to-BL direction: approximately 2 times
HIBCPP cell layer; [1]
  Efflux ratio: 0.45
HIBCPP cell layer; Papp,correct (AP-to-BL)/Papp,correct (BL-to-AP), listed as [^3H]L-glutamate
  Efflux ratio: below 1
GLAST; [3H]L-glutamate uptake at 4°C
  Relative uptake (% of control): 17.7 ± 3.0 % of control
GLAST; [3H]L-glutamate uptake at 4°C, listed as [^3H]L-glutamate
  Relative uptake (% of control): 17.7 % of control

Reference: PMC12913247 (Pharmaceutical Research, 2025)
